Reference: PubChem BioAssay (NCI)
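Cultured in 96-well plates, cells were exposed to test compound for 48 hours across five concentrations. TGI marks complete inhibition of growth.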

Assays:
Assay in all cases: inhibition of tumour cell growth, NCI panel, 48 h
[1] = test system: SK-MEL-2 melanoma
[2] = test system: DU-145 prostate
[3] = test system: 786-0 renal
[4] = test system: HCT-15 colon
[5] = test system: EKVX NSCLC
[6] = test system: M14 melanoma
[7] = test system: OVCAR-8 ovarian
[8] = test system: IGROV1 ovarian
[9] = test system: MDA-MB-231 breast
[10] = test system: MCF7 breast

Structure (SMILES)	TGI [1] [µM]	TGI [2] [µM]	TGI [3] [µM]	TGI [4] [µM]	TGI [5] [µM]	TGI [6] [µM]	TGI [7] [µM]	TGI [8] [µM]	TGI [9] [µM]	TGI [10] [µM]
C[C@H]1C[C@H]2[C@@H]3CCC4=CC(=O)C=C[C@]4(C)C3=CC[C@]2(C)[C@@]1(O)C(=O)CO	> 100	> 100	> 100	> 100	> 100	> 100	> 100	> 100	> 100	> 100
CNC(=O)CCCNC(=O)CCCC(=O)OC	> 100	> 100	> 100	> 100	> 100	> 100	> 100	> 100	> 100	> 100
Cc1ccc(/N=N/C(=NNC(=O)c2ccc(C)cc2)c2ccc(N(C)C)cc2)cc1	> 100	73.9	> 100	91.2	> 100	60.4	> 100	> 100	> 100	46.2
CC(=O)O[C@@H]1[C@H]2[C@@H](OC(=O)c3ccccc3)[C@@H](C)C[C@]2(O)[C@H](OC(C)=O)[C@@]2(C)[C@@H]3C[C@@](C)(OC(C)=O)C[C@@H](OC(C)=O)[C@@]3(OC(C)=O)C[C@@]12C	> 10	> 10	> 10	> 10	> 10	> 10	> 10	> 10	> 10	> 10
C=C1C2CCC3(CCC4C5(C)CCCC4(C=[N+](CCO)C5)C3C2)C1O (stereo not given)	> 100	> 100	> 100	> 100	> 100	> 100	> 100	> 100	> 100	> 100
CC(=O)NCCCCN(CCCNC(C)=O)C(=O)OCc1ccccc1	> 100	> 100	> 100	> 100	> 100	> 100	> 100	> 100	> 100	> 100
COC1=C2CC(C)CC(OC)C(OC(=O)CCCN)C(C)/C=C(\C)C(OC(N)=O)C(OC)/C=C\C=C(/C)C(=O)NC(=CC1=O)C2=O (stereo not given)	26.9	30.5	18.1	14.5	26.6	17.6	21.6	18.6	36.1	13.2
c1ccc(COC2C3COC(O3)C(OCc3ccccc3)C2OCc2ccccc2)cc1 (stereo not given)	> 100	> 100	> 100	> 100	> 100	> 100	> 100	> 100	> 100	> 100
O=C(NCCCCCCCN1CCCCCCC1)C(C1CCCCC1)C1CCCCC1	22.2	27.4	12.6	15.2	18.9	3.97	26	27.3	20.8	19.8
Nc1c(Cl)cc(-c2nc3ccccc3s2)cc1Cl	> 100	> 100	> 100	> 100	> 100	> 100	> 100	> 100	> 100	> 100
Cc1ccc(S(=O)(=O)NC(=O)Nc2cc(Cl)c(S(N)(=O)=O)cc2S(N)(=O)=O)cc1	> 100	> 100	> 100	> 100	> 100	> 100	> 100	> 100	> 100	> 100
Nc1ccc(-c2nc3ccc(F)cc3s2)cc1I	> 100	> 100	> 100	> 100	> 100	> 100	> 100	> 100	> 100	> 100
O=C1CSC(c2ccccc2O)N1c1ccc(Oc2ccc(Cl)cc2)c(Cl)c1 (stereo not given)	65.7	59.8	36.4	46.9	45.9	76.9	74.6	77.4	34.3	86.3
O=c1[nH]c2nc[nH]c2c(=O)n1C1CCCCC1	> 100	> 100	> 100	> 100	> 100	> 100	> 100	> 100	> 100	> 100
CSc1nc2c3ccccc3ccn2c1C(=O)N/N=C/c1ccccc1	> 100	> 100	42.3	> 100	> 100	> 100	44.7	> 100	40.8	> 100
